# Laboratory results: patent US5698691A, “Condensed cyclic compounds and their use” (Takeda Chemical Industries, Ltd., priority 1993, dated 1997)
# Key:
# squalene synthetase [1] = target: T1, squalene synthetase (Homo sapiens, UniProt P37268); assay: Squalene synthetase inhibitory activity, human-derived enzyme (HepG2 microsome fraction); assay type: biochemical; conditions: 5 uM [1-3H] farnesyl pyrophosphate, 37° C., 45 minutes
# T1 construct: endogenous in cells; host or cells: HepG2 (human hepatic carcinoma) cells, microsome fraction
# T1 sequence (P37268 1-417): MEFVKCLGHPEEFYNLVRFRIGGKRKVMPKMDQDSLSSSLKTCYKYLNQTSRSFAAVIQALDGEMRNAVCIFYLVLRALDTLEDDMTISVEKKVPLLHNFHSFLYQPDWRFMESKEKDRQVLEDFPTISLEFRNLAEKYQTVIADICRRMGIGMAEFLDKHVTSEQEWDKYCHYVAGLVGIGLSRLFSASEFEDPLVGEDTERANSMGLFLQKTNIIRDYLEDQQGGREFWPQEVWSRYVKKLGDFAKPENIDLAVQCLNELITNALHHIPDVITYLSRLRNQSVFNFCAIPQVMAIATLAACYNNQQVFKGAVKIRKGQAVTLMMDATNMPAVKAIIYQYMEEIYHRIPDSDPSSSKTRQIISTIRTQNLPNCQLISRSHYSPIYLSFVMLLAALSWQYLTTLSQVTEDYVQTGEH
# Method: (§1) Assay Method of Squalene Synthetase Inhibitory Activity
# (§2) The squalene synthetase inhibitory activity was assayed as follows with the enzyme solutions described in the subsequent Experimental Examples 1 and 2.
# (§3) More specifically, an enzyme solution (protein content 0.8 ug) prepared in Experimental Example 1 or 2 was added to a solution (total volume 50 μl)) containing 5 uM [1-^3 H] farnesyl pyrophosphate (specific activity 25 uCi/mole), 1 mM NADPH, 5 mM MgCl2, 6 mM glutathione, a 100 mM buffer solution of potassium phosphate (pH 7.4) and a test drug (used as an aqueous solution or a DMSO solution), then the reaction was allowed to proceed at 37° C. for 45 minutes. To the reaction mixture was added 150 μl of a mixture of chloroform and methanol (1:2) to suspend the reaction, followed by adding 50 μl of chloroform and 50 μl of a 3N aqueous solution of sodium hydroxide. 50 μl of the chloroform layer (lower layer) containing the reaction mixture having squalene as the principal component and 3 ml of toluene-based liquid scintillator were mixed, and its radioactivity was determined by means of a liquid scintillation counter.
# (§4) The squalene synthetase inhibitory activity was expressed in terms of the concentration inhibiting by 50% the radioactivity taken into the chloroform layer (IC50, molar concentration (M)).
# Human hepatic carcinoma cells HepG2 (about 1×10^9 cells) obtained by incubation in a Dulbecco-modified Eagle's medium (37° C. in the presence of 5% CO2) were suspended in 10 ml of an ice-cooled buffer solution [100 mM potassium phosphate buffer (pH 7.4), 30 mM nicotinamide and 2.5 mM MgCl2 ]. The cells were crashed by means of ultrasonication (for 30 seconds, twice). From the sonicate thus obtained, the microsome fraction was obtained by the same procedure as in Experiment Example 1, which was suspended in an ice-cooled 100 mM potassium phosphate buffer (pH 7.4) (about 4 mg/ml protein concentration). This suspension was used as the enzyme solution. The results are shown in [Table 4].
# squalene synthetase [2] = target: T2, squalene synthetase (Rattus norvegicus, UniProt Q02769); assay: Squalene synthetase inhibitory activity, rat-derived enzyme (liver microsome fraction); assay type: biochemical; conditions: SD rat liver microsome fraction; 5 uM [1-3H] farnesyl pyrophosphate, 37° C., 45 minutes
# T2 construct: from tissue; host or cells: rat liver microsome fraction (SD male rat, 6 weeks old)
# T2 sequence (Q02769 1-416): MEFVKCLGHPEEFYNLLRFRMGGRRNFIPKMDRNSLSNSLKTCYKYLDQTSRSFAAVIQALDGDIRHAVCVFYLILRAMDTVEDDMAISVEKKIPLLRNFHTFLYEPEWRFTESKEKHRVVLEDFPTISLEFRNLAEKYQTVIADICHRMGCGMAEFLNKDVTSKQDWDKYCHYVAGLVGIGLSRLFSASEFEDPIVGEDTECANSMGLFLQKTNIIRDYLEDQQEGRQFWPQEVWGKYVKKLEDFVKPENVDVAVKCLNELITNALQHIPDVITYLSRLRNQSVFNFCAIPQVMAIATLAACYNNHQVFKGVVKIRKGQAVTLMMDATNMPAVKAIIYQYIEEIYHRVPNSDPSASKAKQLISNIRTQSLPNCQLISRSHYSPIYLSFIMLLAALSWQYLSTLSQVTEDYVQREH
# Method: as §1, §2, §3, §4
# An SD male rat (6 week old) was killed by bleeding, and its liver was excised. About 10 g of the liver was washed with a saline solution cooled with ice, which was then homogenized in 15 ml of an ice-cooled buffer solution [100 mM potassium phosphate (pH 7.4), 15 mM nicotinamide, 2 mM MgCl2 ], followed by centrifugation for 20 minutes (4° C.) with 10000×g. The supernatant layer was separated and subjected to further centrifugation for 90 minutes (4° C.) at 105000×g. The sediment was then suspended in an ice-cooled 100 mM phosphate buffer solution (pH 7.4), which was again subjected to centrifugation for 90 minutes (4° C.) at 105000×g. The sediment thus obtained (microsome fraction) was suspended in an ice-cooled 100 mM potassium phosphate buffer (pH 7.4) (about 40 mg/ml protein concentration, determined with BCA protein assay kit of Pias Co., Ltd.). This suspension was used as the enzyme solution.
Structure (SMILES),IC50 (squalene synthetase [1]) [nM],IC50 (squalene synthetase [2]) [nM]
"CC(C)(C)CN1C(=O)[C@@H](CC(=O)O)S[C@H](c2ccccc2Cl)c2cc(Cl)ccc21 (relative stereo) [Example 9, 3,5-trans-7-Chloro-5-(2-chlorophenyl)-1-neopentyl-2-oxo-1,2,3,5-tetrahydro-4,1-benzothiazepine-3-acetic acid]",39,180
"COc1ccc([C@@H]2S[C@@H](CC(=O)O)C(=O)N(CC(C)(C)C)c3ccc(Cl)cc32)c(OC)c1 [Example 50, (3S,5R)-7-Chloro-5-(2,4-dimethoxyphenyl)-1-neopentyl-2-oxo-1,2,3,5-tetrahydro-4,1-benzothiazepine-3-acetic acid]",–,> 1000
"CC(C)(C)CN1C(=O)[C@@H](CC(=O)O)O[C@H](c2ccccc2Cl)c2cc(Cl)sc21 (relative stereo) [Example 31, 3,5-trans-7-Chloro-5-(2-chlorophenyl)-1-neopentyl-2-oxo-1,2,3,5-tetrahydro-4,1-thieno[2,3-e]benzoxazepine-3-acetic acid]",–,170
"CC(C)(C)CN1C(=O)[C@@H](CC(=O)O)S(=O)(=O)[C@H](c2ccccc2Cl)c2cc(Cl)ccc21 (relative stereo) [Example 21, 3,5-trans-7-Chloro-5-(2-chlorophenyl)-1-neopentyl-2-oxo-1,2,3,5-tetrahydro-4,1-benzothiazepine-3-acetic acid S-dioxide]",–,3300
"COc1cccc([C@@H]2S[C@@H](CC(=O)O)C(=O)N(CC(C)(C)C)c3ccc(Cl)cc32)c1OC [Example 44, (3S,5R)-7-Chloro-5-(2,3-dimethoxyphenyl)-1-neopentyl-2-oxo-1,2,3,5-tetrahydro-4,1-benzothiazepine-3-acetic acid]",–,960
"CC(C)(C)CN1C(=S)[C@@H](CC(=O)O)O[C@H](c2ccccc2Cl)c2cc(Cl)ccc21 (relative stereo) [Example 28, 3,5-trans-7-Chloro-5-(2-chlorophenyl)-1-neopentyl-1,2,3,4-tetrahydro-2-thioxo-4,1-benzoxazepine-3-acetic acid]",–,460
CN1C(=O)[C@@H](CC(=O)O)S[C@H](c2ccccc2Cl)c2cc(Cl)ccc21 (relative stereo) [Example 10-3],–,920
"COc1cccc([C@H]2S[C@H](CC(=O)O)C(=O)N(CC(C)(C)C)c3ccc(Cl)cc32)c1OC [Example 43, (3R,5S)-7-Chloro-5-(2,3-dimethoxyphenyl)-1-neopentyl-2-oxo-1,2,3,5-tetrahydro-4,1-benzothiazepine-3-acetic acid]",5.9,9.3
"COC(=O)C[C@H]1S[C@H](c2ccccc2OC)c2cc(Cl)ccc2N(CC(C)C)C1=O (relative stereo) [Example 8-1, 3,5-trans-7-Chloro-5-(2-methoxyphenyl)-1-isobutyl-2-oxo-1,2,3,5-tetrahydro-4,1-benzothiazepine-3-acetic acid methyl ester]",2000,–
"COc1ccccc1[C@H]1O[C@@H](CC(=O)O)C(=O)N(CC(C)(C)C)c2sc(Cl)cc21 (relative stereo) [Example 34, 3,5-cis-7-Chloro-5-(2-methoxyphenyl)-1-neopentyl-2-oxo-1,2,3,5-tetrahydro-4,1-thieno[2,3-e]oxazepine-3-acetic acid]",–,> 1000
"COc1ccc([C@H]2S[C@H](CC(=O)O)C(=O)N(CC(C)(C)C)c3ccc(Cl)cc32)c(OC)c1 [Example 51, (3R,5S)-7-Chloro-5-(2,4-dimethoxyphenyl)-1-neopentyl-2-oxo-1,2,3,5-tetrahydro-4,1-benzothiazepine-3-acetic acid]",18,21
"COc1ccccc1C1SC(CC(=O)O)C(=O)N(CC(C)(C)C)c2ccc(Cl)cc21 (stereo not drawn) [Example 10-8, 3,5-trans-7-Chloro-5-(2-methoxyphenyl)-1-neopentyl-2-oxo-1,2,3,5-tetrahydro-4,1-benzothiazepine-3-acetic acid]",13,23
CCCN1C(=O)[C@@H](CC(=O)O)S[C@H](c2ccccc2OC)c2cc(Cl)ccc21 (relative stereo) [Example 10-6],31,39
"CC(C)(C)CN1C(=O)N(CC(=O)O)CC(c2ccccc2Cl)c2cc(Cl)ccc21 (centres unmarked) [Example 53, 7-Chloro-5-(2-chlorophenyl)-1-neopentyl-2-oxo-1,2,4,5-tetrahydro-3H-1,3-benzodiazepine-3-acetic acid]",130,290
"CC(C)CN1C(=O)[C@@H](CC(=O)O)N[C@H](c2ccccc2Cl)c2cc(Cl)ccc21 [Example 14, (3R,5S)-1-Isobutyl-7-chloro-5-(2-chlorophenyl)-2,3,4,5-tetrahydro-2-oxo-1H-1,4-benzodiazepine-3-acetic acid]",160,430
"CC(C)CN1C(=O)[C@@H](CC(=O)O)S[C@H](c2ccccc2Cl)c2cc(Cl)ccc21 (relative stereo) [Example 10-5, 3,5-trans-7-Chloro-5-(2-chlorophenyl)-1-isobutyl-2-oxo-1,2,3,5-tetrahydro-4,1-benzothiazepine-3-acetic acid]",25,51
CCCN1C(=O)[C@@H](CC(=O)O)S[C@H](c2ccccc2Cl)c2cc(Cl)ccc21 (relative stereo) [Example 10-2],42,62
"COc1ccccc1[C@H]1O[C@H](CC(=O)O)C(=O)N(CC(C)C)c2sc(Cl)cc21 (relative stereo) [Example 36, 3,5-trans-7-Chloro-1-isobutyl-5-(2-methoxyphenyl)-2-oxo-1,2,3,5-tetrahydro-4,1-thieno[2,3-e]oxazepine-3-acetic acid]",–,490
"CC(C)(C)CN1C(=O)[C@@H](CC(=O)O)[S+]([O-])[C@H](c2ccccc2Cl)c2cc(Cl)ccc21 (relative stereo) [Example 19, 3,5-trans-7-Chloro-5-(2-chlorophenyl)-1-neopentyl-2-oxo-1,2,3,5-tetrahydro-4,1-benzothiazepine-3-acetic acid S-oxide]",–,700
"CC(C)CN1C(=O)[C@@H](CC(=O)O)N=C(c2ccccc2Cl)c2cc(Cl)ccc21 [Example 13, (3R)-1-Isobutyl-7-chloro-5-(2-chlorophenyl)-2,3-dihydro-2-oxo-1H-1,4-benzodiazepine-3-acetic acid]",–,3900
CCN1C(=O)[C@@H](CC(=O)O)S[C@H](c2ccccc2Cl)c2cc(Cl)ccc21 (relative stereo) [Example 10-4],–,100
"CC(C)(C)CN1C(=O)[C@@H](CC(=O)NCC(=O)O)S[C@H](c2ccccc2Cl)c2cc(Cl)ccc21 (relative stereo) [Example 23, N-[3,5-trans-7-Chloro-5-(2-chlorophenyl)-1-neopentyl-2-oxo-1,2,3,5-tetrahydro-4,1-benzothiazepine-3-acetyl]glycine]",13,22
